Results: article PMC7126937 (Bioorganic & Medicinal Chemistry, 2014)
Values joined by “and” are separate entries in the source; they are usually repeats but may differ in a detail not shown here. Equal values may be shown once.

What follows are compounds tested on influenza virus A/California/7/09 (H1N1)pdm09.
Format: cell-based, influenza virus A/California/07/09 (H1N1)pdm09

SMILES	ED50 (50% effective concentration; the concentration leading to 50% inhibition of virus replication)
NC12CC3CC(CC(C3)C1)C2 [Amantadine, 1-aminoadamantane, reference compound]	64.2 ± 4.7 µM
CC1(C)C2CC[C@@]1(C)C(=O)C2 [Compound 1, (1R)-(+)-camphor, reference compound]	1644.7 ± 144.4 µM
CC1(C)[C@@H]2CC[C@@]1(C)/C(=N/CCC/N=C1\C[C@H]3CC[C@]1(C)C3(C)C)C2 [Compound 2a, N^1E,N^3E-N^1,N^3-bis((1R,2R,4R)-1,7,7-trimethylbicyclo[2.2.1]heptan-2-ylidene)propane-1,3-diamine]	9.3 ± 0.8 µM
CC1(C)[C@@H]2CC[C@@]1(C)/C(=N/CCCCCC/N=C1\C[C@H]3CC[C@]1(C)C3(C)C)C2 [Compound 2b, N^1E,N^6E-N^1,N^6-bis((1R,2R,4R)-1,7,7-trimethylbicyclo[2.2.1]heptan-2-ylidene)hexane-1,6-diamine]	15.1 ± 1.1 µM
CC1(C)[C@@H]2CC[C@@]1(C)/C(=N/CCCCCCC/N=C1\C[C@H]3CC[C@]1(C)C3(C)C)C2 [Compound 2c, N^1E,N^7E-N^1,N^7-bis((1R,2R,4R)-1,7,7-trimethylbicyclo[2.2.1]heptan-2-ylidene)heptane-1,7-diamine]	22.8 ± 2.3 µM
CC1(C)[C@@H]2CC[C@@]1(C)/C(=N/CCCCCCCC/N=C1\C[C@H]3CC[C@]1(C)C3(C)C)C2 [Compound 2d, N^1E,N^8E-N^1,N^8-bis((1R,2R,4R)-1,7,7-trimethylbicyclo[2.2.1]heptan-2-ylidene)octane-1,8-diamine]	24.2 ± 2.1 µM
CC1(C)[C@@H]2CC[C@@]1(C)/C(=N/CCCCCCCCCCCC/N=C1\C[C@H]3CC[C@]1(C)C3(C)C)C2 [Compound 2e, N^1E,N^12E-N^1,N^12-bis((1R,2R,4R)-1,7,7-trimethylbicyclo[2.2.1]heptan-2-ylidene)dodecane-1,12-diamine]	45.0 ± 3.9 µM
CC1(C)[C@@H]2CC[C@@]1(C)/C(=N/c1ccc(Cc3ccc(/N=C4\C[C@H]5CC[C@]4(C)C5(C)C)cc3)cc1)C2 [Compound 2f, (E)-N-((1R,2R,4R)-1,7,7-trimethylbicyclo[2.2.1]heptan-2-ylidene)-4-(4-((E)-((1R,2R,4R)-1,7,7-trimethylbicyclo[2.2.1]heptan-2-ylidene)amino)benzyl)aniline]	351.4 ± 32.3 µM
CC1(C)[C@@H]2CC[C@@]1(C)/C(=N/c1ccc(Oc3ccc(/N=C4\C[C@H]5CC[C@]4(C)C5(C)C)cc3)cc1)C2 [Compound 2g, (E)-N-((1R,2R,4R)-1,7,7-trimethylbicyclo[2.2.1]heptan-2-ylidene)-4-(4-((E)-((1R,2R,4R)-1,7,7-trimethylbicyclo[2.2.1]heptan-2-ylidene)amino)phenoxy)aniline]	373.4 ± 35.1 µM
CC1(C)[C@@H]2CC[C@@]1(C)[C@H](NCCCCCCN[C@@H]1C[C@H]3CC[C@]1(C)C3(C)C)C2 [Compound 3b, N^1,N^6-bis((1R,2R,4R)-1,7,7-trimethylbicyclo[2.2.1]heptan-2-yl)hexane-1,6-diamine]	0.77 µM and 0.77 ± 0.1 µM
CC1(C)[C@@H]2CC[C@@]1(C)[C@H](NCCCCCCCN[C@@H]1C[C@H]3CC[C@]1(C)C3(C)C)C2 [Compound 3c, N^1,N^7-bis((1R,2R,4R)-1,7,7-trimethylbicyclo[2.2.1]heptan-2-yl)heptane-1,7-diamine]	3.2 µM and 3.2 ± 0.2 µM
CC1(C)[C@@H]2CC[C@@]1(C)[C@H](NCCCCCCCCCCCCN[C@@H]1C[C@H]3CC[C@]1(C)C3(C)C)C2 [Compound 3e, N^1,N^12-bis((1R,2R,4R)-1,7,7-trimethylbicyclo[2.2.1]heptan-2-yl)dodecane-1,12-diamine]	4.4 ± 0.3 µM
CC1(C)[C@@H]2CC[C@@]1(C)[C@H](Nc1ccc(Cc3ccc(N[C@@H]4C[C@H]5CC[C@]4(C)C5(C)C)cc3)cc1)C2 [Compound 3f, (1R,2R,4R)-1,7,7-trimethyl-N-(4-(4-((1R,2R,4R)-1,7,7-trimethylbicyclo[2.2.1]heptan-2-ylamino)benzyl)phenyl)bicyclo[2.2.1]heptan-2-amine]	153.2 ± 11.9 µM
CC1(C)[C@@H]2CC[C@@]1(C)[C@H](Nc1ccc(Oc3ccc(N[C@@H]4C[C@H]5CC[C@]4(C)C5(C)C)cc3)cc1)C2 [Compound 3g, (1R,2R,4R)-1,7,7-trimethyl-N-(4-(4-((1R,2R,4R)-1,7,7-trimethylbicyclo[2.2.1]heptan-2-ylamino)phenoxy)phenyl)bicyclo[2.2.1]heptan-2-amine]	207.6 ± 19.5 µM
CN(CCCCCCN(C)[C@@H]1C[C@H]2CC[C@]1(C)C2(C)C)[C@@H]1C[C@H]2CC[C@]1(C)C2(C)C [Compound 4b, N^1,N^6-dimethyl-N^1,N^6-bis((1R,2R,4R)-1,7,7-trimethylbicyclo[2.2.1]heptan-2-yl) hexane-1,6-diamine]	110.1 ± 10.4 µM
CN(CCCCCCCN(C)[C@@H]1C[C@H]2CC[C@]1(C)C2(C)C)[C@@H]1C[C@H]2CC[C@]1(C)C2(C)C [Compound 4c, N^1,N^7-dimethyl-N^1,N^7-bis((1R,2R,4R)-1,7,7-trimethylbicyclo[2.2.1]heptan-2-yl)heptane-1,7-diamine]	40.4 ± 3.8 µM
CC1(C)[C@@H]2CC[C@@]1(C)/C(=N/c1ccc(Cc3ccc(N)cc3)cc1)C2 [Compound 5f, (E)-4-(4-aminobenzyl)-N-((1R,2R,4R)-1,7,7-trimethylbicyclo[2.2.1]heptan-2-ylidene)aniline]	15.0 ± 1.2 µM
CC1(C)[C@@H]2CC[C@@]1(C)/C(=N/c1ccc(Oc3ccc(N)cc3)cc1)C2 [Compound 5g, (E)-4-(4-aminophenoxy)-N-((1R,2R,4R)-1,7,7-trimethylbicyclo[2.2.1]heptan-2-ylidene)aniline]	4.2 ± 0.0 µM
CC(N)C12CC3CC(CC(C3)C1)C2.Cl (stereo not drawn) [Rimantadine, α-methyl-1-adamantylamine hydrochloride, reference compound]	67.0 ± 4.9 µM
